Legend:
Namalwa (Lymphoma) = assay: Proliferation of Namalwa; assay type: cell-based; settings: for IC50: read-out: IC50 Namalwa (Lymphoma)
Procedure, shortened: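 Luminescent ATP read-out (CellTiter Glo) after 96 h compound exposure gave % inhibition relative to DMSO-treated cells, from which IC50 was fitted. Seeding densities were line-specific, from 800 to 10000 cells/well. Potency across batches was normalised to reference compound K101.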

HL-60 (Leukemia) = assay: Proliferation of HL-60; assay type: cell-based; settings: for IC50: Homo sapiens, HL-60, read-out: IC50 HL-60 (Leukemia)
A549 cell line = assay: Proliferation of A549 (CellTiter Glo); assay type: cell-based; settings: Homo sapiens, A549, 96 h, read-out: IC50 μM (A549 Cell Line)
Procedure, shortened: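 A549 cells (K-Ras-mutant NSCLC) were seeded at 1,000 cells/well, allowed 24 h to settle, then exposed for 96 h to 3-fold serially diluted compound (final DMSO ≤0.25%). CellTiter Glo luminescence was read, and inhibition was calculated relative to DMSO-only wells. IC50, relative IC50 and % top inhibition came from curve fitting.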

C1b domain of human PKCε = molecular target: T1, C1b domain of human PKCε (Homo sapiens, UniProt Q02156); assay: biochemical; assay type: binding; settings: 3H-PDBu competition
T1 construct: Genes encoding C1b domains of human PKCα, δ, ε, θ, and PKD1 (PKCμ) were synthesized; made in house; host or cells: E. coli BL21(DE3)
T1 sequence (Q02156 242-292 limits assumed): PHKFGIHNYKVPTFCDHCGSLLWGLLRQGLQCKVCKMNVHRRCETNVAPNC
Procedure, shortened: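 Affinity was measured by competition with the radiotracer 3H-PDBu for recombinant human GST-C1b fusion proteins expressed in E. coli BL21(DE3). Incubation ran 10 minutes at 37° C with shaking, then 20 minutes on ice, and filter-trapped 3H-PDBu was counted by scintillation. IC50 values were converted to Ki by Cheng-Prusoff using the experimentally determined Kd for each protein preparation.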

Mino (Lymphoma) = assay: Proliferation of Mino; assay type: cell-based; settings: for IC50: Homo sapiens, MINO, read-out: IC50 Mino (Lymphoma)
Procedure, shortened: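 Cells seeded per line (KP-4 800-1000, Panc2.13 3000, Namalwa and Mino 5000-10000 cells/well), 24 h at 37° C, then 96 h with 3-fold serial dilutions of compound, final DMSO ≤0.25%. CellTiter Glo luminescence read; % inhibition vs DMSO-only max, IC50 fitted. Potency also normalized as ratio to comparator K101 across batches.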

PANC1 cells = assay: Sphere formation assay; assay type: cell-based; settings: Homo sapiens, PANC-1, read-out: concentration exhibiting at least 50% inhibition on the sphere forming efficiency
Procedure: A group of diterpenoid compounds of the present disclosure were tested to assess their effects on blocking formation of spheres from cancer cell lines such as PANC1, a K-Ras mutant pancreatic cell line. Briefly, PANC1 cells were harvested, re-suspended as single cell suspensions, counted and seeded into Ultra Low Attachment Culture 96-well plate (Corning, Cat #3474) at 100 cells/well in 100 μl of complete media (with 10% FBS) containing 2% Matrigel (Corning, Cat #354234) and DMSO or compounds. Six replicates per condition were seeded. The seeded cells were placed in the 37° C. tissue culture incubator. 10 μl of low serum containing media (with 0.1% FBS) was added to each well every week. Spheres formed after 3-4 weeks were counted. Sphere forming efficiency was expressed as percentage of # of spheres/ # of cells seeded.

Panc2.13 tumors = assay: Panc2.13 xenograft model, intra-tumoral injection; assay type: in vivo, mouse; settings: for Tumor growth inhibition T/C: Day 45, seven daily IT injections, Nu/Nu mice; for tumor clearance: end of efficacy study, three mice per group, seven daily IT injections
Procedure: Immunodeficient (athymic) Nu/Nu mice were implanted at one flank subcutaneously with Panc2.13 pancreatic cancer cells. […] All groups tolerated drug treatments very well. […] Scabs formed after 1-2 weeks and the skin recovered with minimal scaring after 3-4 weeks. Tumor growth/re-growth on or near the injection site was monitored for up to 55 days. […] Tumor growth inhibition is calculated by dividing the group average tumor volume for the treated group by the group average tumor volume for the control group (TIC). A one-way ANOVA was performed to compare tumor volume among groups, and when a significant F-statistics (a ratio of treatment variance to the error variance) was obtained, comparisons between groups were carried out with Games-Howell test. All data were analyzed using GraphPad 5.0. P<0.05 was considered to be statistically significant.
A Mann-Whitney method was performed to analyze the tumor clearance rate comparing drug treated groups with the vehicle group at the end of the efficacy study. P<0.05 was considered to be statistically significant. Vehicle-injected tumors kept growing and there was no tumor clearance at the end point.

| SMILES | ratio (IC50 of K101)/(IC50 of compound) Namalwa (Namalwa (Lymphoma)) | IC50 (Namalwa (Lymphoma)) | ratio (IC50 of K101)/(IC50 of compound) HL-60 (HL-60 (Leukemia)) | IC50 (HL-60 (Leukemia)) | IC50 (A549 cell line) | Ki (C1b domain of human PKCε) | ratio (IC50 of K101)/(IC50 of compound) Mino (Mino (Lymphoma)) | IC50 (Mino (Lymphoma)) | IC50 (PANC1 cells) | Tumor growth inhibition T/C (Panc2.13 tumors) | tumor clearance (Panc2.13 tumors) |
| --- | --- | --- | --- | --- | --- | --- | --- | --- | --- | --- | --- |
| CC1=C[C@H]2[C@@]3(O)[C@H](C)C[C@]4(OC(=O)[C@@H](N)CC5CCCCC5)[C@H]([C@@H]3C=C(CO)C[C@]2(O)C1=O)C4(C)C | 2.03 | 30 to 60 nM | 2.32 | 30 to 60 nM | 0.06 to 0.1 µM | 10 to 30 nM | 7.33 | 1 to 10 nM | – | – | – |
| CC1=C[C@H]2[C@@]3(O)[C@H](C)C[C@]4(OC(=O)[C@@H](N)C5Cc6ccccc6C5)[C@H]([C@@H]3C=C(CO)C[C@]2(O)C1=O)C4(C)C | 1.6 | 30 to 60 nM | 1.79 | 30 to 60 nM | 0.06 to 0.1 µM | 10 to 30 nM | 5.5 | 10 to 30 nM | ≤ 150 nM | – | – |
| CC1=C[C@H]2[C@@]3(O)[C@H](C)C[C@]4(OC(=O)[C@@H](N)[C@]56C[C@H]7C[C@H](C[C@H](C7)C5)C6)[C@H]([C@@H]3C=C(CO)C[C@]2(O)C1=O)C4(C)C | 18.2 | 1 to 10 nM | 16.2 | 1 to 10 nM | 0.001 to 0.01 µM | – | 52.2 | 1 to 10 nM | ≤ 50 nM | 3.3 | two out of three |
| CC1=C[C@H]2[C@@]3(O)[C@H](C)C[C@]4(OC(=O)[C@H](N)CCCCCCc5ccccc5)[C@H]([C@@H]3C=C(CO)C[C@]2(O)C1=O)C4(C)C | 4.93 | 10 to 30 nM | 4.43 | 10 to 30 nM | 0.01 to 0.03 µM | 10 to 30 nM | 21.3 | 1 to 10 nM | ≤ 150 nM | 0 | – |
| CC1=C[C@H]2[C@@]3(O)[C@H](C)C[C@]4(OC(=O)[C@@H](N)CCCCCCc5ccccc5)[C@H]([C@@H]3C=C(CO)C[C@]2(O)C1=O)C4(C)C | 16.1 | 1 to 10 nM | 12.1 | 1 to 10 nM | 0.001 to 0.01 µM | 10 to 30 nM | 52.2 | 1 to 10 nM | ≤ 50 nM | – | one out of three |
